In patent US12458688B2, “Epitopes” (Scancell Limited, priority 2018, dated 2025):
Like-named read-outs stand apart in the source and are kept apart here.

Columns and labels:
[1] = test system: HLA-HHDII/DP4 mice; assay: Ex vivo IFNγ ELISpot after peptide immunisation, HHDII/DP4 mice; assay type: in vivo, mouse; settings: for IFNγ ELISpot response: 3 immunisations with CpG/MPLA, day 21
Description: (§1) C57BL/6 mice (Charles River, UK), HLA-DR4 mice (Model #4149, Taconic, USA), HLA-A2/DR1 (HHDII/DR1, Pasteur Institute), HLA-A2.1+/+HLA-DP4+/+hCD4+/+ (HLA-HHDII/DP4) transgenic mice (EM: 02221, European Mouse Mutant Archive) described in patent WO2013/017545 A1 (EMMA repository, France) were used, aged between 8 and 12 weeks. Peptides were dissolved in PBS to 1 mg/ml and then emulsified (a series of dilutions) with CpG ODN 1826 and MPLA 6 μg/mouse of each (Invivogen, UK). Peptides (25 μg/mouse) were injected subcutaneously at the base of the tail. Mice were immunised at days 1, 7 and 14 for peptide immunisation. Spleens were removed for analysis at day 21 unless stated otherwise.
(§2) ELISpot assays were performed using murine IFNγ, IL-17 and IL-10 capture and detection reagents according to the manufacturer's instructions (Mabtech, Sweden). In brief, anti-IFNγ, IL-17 and IL-10 specific antibodies were coated onto wells of 96-well Immobilin-P plate. Synthetic peptides (at various concentrations) and 5×10^5 per well splenocytes were added to wells of the plate in quadruplicate Tumour target cells were added where relevant at 5×10^4/well in triplicate and plates incubated for 40 hrs at 37° C. After incubation, captured IFNγ, IL-10 and IL-17 were detected by biotinylated anti-IFNγ, IL-10 and IL-17 antibodies and developed with a streptavidin alkaline phosphatase and chromogenic substrate. Lipopolysaccharide (LPS; 5 μg/ml) was used as a positive control. For MHC blocking studies, anti-CD4 blocking antibody (GK1.5) or anti-CD4 blocking antibody (RPA-T4) for HHDII/DP4 mice which express human CD4 and anti-CD8 blocking antibody (2.43) from Bioxcell were used at 20 μg/ml. Spots were analysed and counted using an automated plate reader (Cellular Technologies Ltd).
Screening was performed to identify potential homocitrullinated ALDOA epitopes in transgenic HHDII/DP4 and HHDII/DR1 mice. Mice were immunised with pools of human homocitrullinated peptides. […] Each pool was administered as three immunisations containing 20 μg of each peptide and CpG/MPLA as an adjuvant. After 21 days the mice were culled and the immune responses to each peptide within the immunising pool were assessed by ex vivo ELISpot in HHDII/DP4 (FIG. 4b) and HHDII/DR1 mice (FIG. 4d). […] Our predictions therefore identified 3/5 peptides which could induce a T cell response. […] Of the responding peptides ALDOA 74-93 Hcit and 140-157 Hcit peptides are homologous in human and mice therefore these two peptides were selected for further investigation. Minimal IL-10 (FIG. 6b) or IL-17 (FIG. 6c) responses were seen to Aldolase peptides in HHDII/DP4 mice.
Using this combination of predictions, 5 CyK8 peptides containing homocitrulline were synthesised (Table 4). Screening was performed to identify potential homocitrullinated Cyk8 epitopes in transgenic HHDII/DP4. Mice were immunised with pools of human homocitrullinated peptides. […] Each pool was administered as three immunisations containing 20 μg of each peptide and CpG/MPLA as an adjuvant. After 21 days the mice were culled and the immune responses to each peptide within the immunising pool were assessed by ex vivo ELISpot in HHDII/DP4 (FIG. 10a). […] The responses to CyK8 101-120 Hcit, 112-131 Hcit, 182-201 Hcit, 371-388 Hcit and 381-399 Hcit immunisation were characterised for cross reactivity to the wt peptide sequence. […] Thus a key characteristic of immunogenic peptides is they express homocitrulline. All of these peptides (100%) were immunogenic. Thus a high predicted HLA-DP4 binding affinity (<30), the presence of homocitrulline residues in the core region, the peptide being amphipathic in nature with a predominantely spiral conformational structure upon 3D modelling, and the existence of homology between the mouse and human sequences defines immunogenicity. When this model was applied retrospectively to include the vimentin and ALDOA peptides 8/9 (88%) were correctly predicted. […]

[2] = test system: HLA-HHDII/DR1 mice; assay: Ex vivo IFNγ ELISpot after peptide immunisation, HHDII/DR1 mice; assay type: in vivo, mouse; settings: for IFNγ ELISpot response: 3 immunisations with CpG/MPLA, day 21
Description: as §1, §2
Screening was performed to identify potential homocitrullinated vimentin epitopes in mice. Mice were immunised with pools of homocitrullinated peptides. […] Each pool was administered as three immunisations containing 20 μg of each peptide and CpG/MPLA as an adjuvant on day 1, 8 and 15. On day 21 the mice were culled and the immune responses to each peptide within the immunising pool were assessed by ex vivo ELISpot. Given that different mouse strains have different MHC repertoires a number of strains were used for screening. Peptide responses were assessed in transgenic strains expressing human DR4 or HHDII/DR1 in a C57BL/6 background (see methods). […]
The five selected homocitrullinated Cyk8 peptides were also screened in HHDII/DR1 transgenic mice. […] Response to Cyk8 112Hcit peptide in the HHDII/DR1 mice was lost in the presence of CD8 blocking antibody but less effect of the CD4 blocking antibody was seen (FIG. 12b). […] Responses to homocitrullinated Cyk8 peptides show both CD4 and CD8 mediated responses.

[3] = molecular target: HLA-DP4 (human); assay: DP4 competition ELISA; competitor biotinylated Hep B peptide; 5 fold excess of unlabelled peptide
[4] = molecular target: T1, HLA-DP4 (Homo sapiens, UniProt P04440+P20036); assay: DP4 competition assay with biotinylated Hep B peptide; settings: inhibition of biotinylated Hep B binding to HLA-DP4; 5 fold excess test peptide, equal amount for unlabelled Hep B
T1 sequence (P20036 29-260): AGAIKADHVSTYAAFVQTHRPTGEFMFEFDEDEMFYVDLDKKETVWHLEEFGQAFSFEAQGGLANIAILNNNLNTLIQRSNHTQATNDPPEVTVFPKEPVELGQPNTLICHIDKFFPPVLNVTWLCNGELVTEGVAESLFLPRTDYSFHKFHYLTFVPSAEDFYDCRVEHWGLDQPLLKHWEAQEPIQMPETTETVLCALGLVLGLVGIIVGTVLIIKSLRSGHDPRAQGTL
T1 sequence (P04440 30-258): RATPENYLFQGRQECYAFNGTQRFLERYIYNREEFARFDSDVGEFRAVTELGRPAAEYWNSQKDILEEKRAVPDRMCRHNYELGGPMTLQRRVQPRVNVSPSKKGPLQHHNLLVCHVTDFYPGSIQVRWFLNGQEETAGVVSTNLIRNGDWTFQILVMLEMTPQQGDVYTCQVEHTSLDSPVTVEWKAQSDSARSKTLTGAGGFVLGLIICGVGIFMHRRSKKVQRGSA
Description: 2×T175 gave 2.5×10^7 B16 HHDII/DP4 (B16F1 β2M H2Ab1 dKO A35 HHDII/DP4 H7/2E9/F9 p14) cells. This was enough for 5 preps using the following protocol with Mem-PER™ Plus Membrane Protein Extraction Kit (thermo-scientific cat #89842).
5×10^6 cells were resuspended in the growth media by scraping the cells off the surface of the plate with a cell scraper and then centrifuged at 300 g for 5 mins. The cell pellet was washed with 3 ml of Cell Wash Solution and centrifuged at 300 g for 5 mins. The supernatant was removed and discarded. The cells were resuspended in 1.5 ml of Cell Wash Solution and transfer to a 2 ml centrifuge tube and centrifuged at 300 g for 5 mins. The supernatant was discarded. 0.75 ml of permeabilization buffer was added to the cell pellet and vortexed briefly to obtain a homogeneous cell suspension and incubated for 10 mins at 4° C. with constant mixing. The permeabilized cells were centrifuge for 15 mins at 16,000g before carefully removing the supernatant containing cytosolic proteins and transfering to a new tube. 0.5 ml of solubilization buffer was added to the pellet and resuspend prior to incubating at 4° C. for 30 minutes with constant mixing prior to centrifugation at 16,000g for 15 mins at 4° C. The supernatant containing solubilized membrane and membrane-associated proteins was transfered to a new tube. Aliquots were frozen at −80° C. for future use. 12.5 μl Halt™ Protease and Phosphatase Inhibitor Cocktail, EDTA-free (100X) thermo-scientific (Catalog number 78445) was added prior to freezing.
High binding plates were coated with streptavidin (Sigma S4762 at 1 mg/ml) 1/500 in PBS and incubated overnight at 4° C. The plates were blocked with 1% BSA in PBS for 4 hrs at room temp and washed 3×PBS/0.5% Tweenx. 450 μl of cell prep lysate (B16F1 B16 HHDII/DP4 H7/2E9/F9) was mixed with 50 μg test peptide (see below) or 10 μg of unlabelled Hep B peptide for 30 mins. 10 μg biotinylated Hep B peptide was added & incubated for 4 hrs at 37° C.:
Lysate/peptide mix was added to the plates at 100 μl/well and incubated for 4 hrs at room temperature. Plates were washed 3× with PBS/0.5% Tween. 100 μl per well of Leinco anti-Human HLA-DP4 clone B7/21 #H260 1 mg/ml at 1/500 dilution in 1% BSA/PBS was added and incubated for 1 hr at room temperature prior to washing 3× PBS/0.5% Tween. Goat anti-mouse lgG3-HRP at 0.5 mg/ml 1/500 100 μl per well (Invitrogen #M32607) diluted in 1% BSA/PBS) was added for 1 hr at room temperature prior to washing and adding 150 μl of TMB substrate to each well. The reaction was stopped with 50 μl of 2N H2SO4 and plates read plate at 450 nm.
To ensure that the biotinylation of Hep B had not interfered with its binding, HLA-DP4 was incubated with equal amounts of biotinylated and unlabelled Hep B peptide. Unlabelled peptide competed equally reducing binding by 47% (FIG. 53b).
The biotinylated HepB peptide was then incubated with a 5 fold excess of the unlabelled homocitrulline peptides. All peptides inhibited the binding of biotinylated Hep B to HLA-DP4 but to varying levels (FIG. 53c-e).

[5] = splenocytes after 7 days culture

VLAAVY-Hcit-AL [Aldolase 209-217]
IFNγ ELISpot response [1]: stimulation of IFNγ responses | IFNγ response in presence of CD8 blocking antibody [1, 5]: lost | cross reactivity of Hcit response to wt peptide [2]: lower reactivity | IFNγ ELISpot response [2]: strong responses

DVAASEFFRSG-Hcit-YDLDF-Hcit-SP [Alpha enolase 245-264 Hcit]
IFNγ ELISpot response [1]: stimulation of IFNγ responses | IFNγ response in presence of CD4 blocking antibody [1, 5]: lost

RSERLA-Hcit-YNQLLRIEEELGS [Alpha enolase 400-419 Hcit]
IFNγ ELISpot response [1]: stimulation of IFNγ responses | IFNγ response in presence of CD4 blocking antibody [1, 5]: lost

Hcit-MALDIEIATYR-Hcit-LLEGEE [Vimentin 390-408 Hcit]
IFNγ ELISpot response [1]: stimulation of IFNγ responses | IFNγ response in presence of CD4 blocking antibody [1, 5]: loss of response

Hcit-MLET-Hcit-WSL [Cyk8 117-125Hcit]
IFNγ response in presence of CD4 blocking antibody [1]: not in the presence of CD4 blocking antibody | IFNγ response in presence of CD8 blocking antibody [1]: blocked | IFNγ ELISpot response [1]: generation of responses | IFNγ response in presence of CD8 blocking antibody [2]: lost | IFNγ ELISpot response [2]: generation of responses

Cytokeratin 8 182-202 Hcit (peptide)
% inhibition [3]: 61%

Cytokeratin 8 371-388 Hcit (peptide)
% inhibition [3]: 72%

LEQQNKMLETKWSLLQQQKT [Cyk8 112 wt, reference compound]
IFNγ ELISpot response [2]: no specific response

YVTE-Hcit-VLAAVY-Hcit-ALSD [Aldolase 204-219 Hcit]
cross reactivity of Hcit response to wt peptide [1]: significantly higher | IFNγ ELISpot response [1]: stimulation of IFNγ responses | IFNγ response in presence of CD4 blocking antibody [1, 5]: partial loss of response | IFNγ response in presence of CD8 blocking antibody [1, 5]: partial loss of response | cross reactivity of Hcit response to wt peptide [2]: lower reactivity | IFNγ ELISpot response [2]: strong responses

EELNMDLFRSTM-Hcit-PVQ-Hcit-VL [BiP 328-346 Hcit]
cross reactivity of Hcit response to wt peptide [1]: significantly higher | IFNγ ELISpot response [1]: stimulation of IFNγ responses | IFNγ response in presence of CD4 blocking antibody [1, 5]: loss of response

PLRPQNYLFGCEL-Hcit-AD-Hcit- [NPM 11-27 Hcit]
IFNγ ELISpot response [1]: stimulation of IFNγ responses | IFNγ response in presence of CD4 blocking antibody [1, 5]: blocking of the response | IFNγ response in presence of CD8 blocking antibody [1, 5]: not with the CD8 blocking antibody

EDFSETLTRA-Hcit-FEELNMDLFR [BiP 316-336 Hcit]
IFNγ ELISpot response [1]: stimulation of IFNγ responses | IFNγ response in presence of CD4 blocking antibody [1, 5]: loss of response

KDGADFAKWRCVLKIGEH [Aldolase A 140-157 WT, reference compound]
% inhibition [4]: 29%

IGGVILFHETLYQKADDGRP [Aldolase A 74-93 WT, reference compound]
% inhibition [4]: 27%

GGSLP-Hcit-VEA-Hcit-FINYV-Hcit-NCFR [NPM 258-277 Hcit]
cross reactivity of Hcit response to wt peptide [1]: significantly higher | IFNγ ELISpot response [1]: stimulation of IFNγ responses | IFNγ response in presence of CD4 blocking antibody [1, 5]: blocking of the response | IFNγ response in presence of CD8 blocking antibody [1, 5]: not with the CD8 blocking antibody

GFFLLTRILTIPQ [HepB, reference compound]
% inhibition [4]: 47%
